The values that follow come from US11123340B2, “Small-molecule UT-A-selective urea transport inhibitors” (The Regents of the University of California, priority 2014, dated 2021).

One may read the solubility as how much of the substance goes into solution per volume. The IC50 is the midpoint of a concentration-inhibition curve. Read a high IC50 as weaker potency in that assay.

Data set [1] can be described thus: In vitro metabolic stability in rat hepatic microsomes. The format is in vitro ADME. The settings on record: at 60 min, 5 μM, NADPH. On the procedure:
As described (see, e.g., Snyder et al. (2011) J Med Chem. 54, 5468-5477), compounds (each 5 μM) were incubated for specified times at 37° C. with rat liver microsomes (1 mg protein/mL; Sigma-Aldrich, St. Louis, Mo.) in potassium phosphate buffer (100 mM) containing 1 mM NADPH. The mixture was then chilled on ice, and 0.5 mL of ice-cold EtOAc was added. Samples were centrifuged for 15 min at 3,000 rpm, the supernatant evaporated to dryness, and the residue was dissolved in 100 μl mobile phase (acetonitrile: water [3:1], containing 0.1% formic acid) for LC/MS. Reverse-phase HPLC separations were carried out using a XTERRA MS C18 column (2.1 mm×100 mm, 3.5 m) equipped with a solvent delivery system (Waters model 2695, Milford, Mass.). The solvent system consisted of a linear gradient from 5 to 95% acetonitrile containing 0.1% formic acid, run over 16 min (0.2 mL/min flow rate).
In vitro metabolic stability was measured by LC/MS after incubation with rat hepatic microsomes and NADPH.

The nature of data set [2]: Solubility. The format is physicochemical. The method, then: Several vehicles and administration routes were tested in order to give predicted therapeutic inhibitor concentrations in blood and urine. […] Because of the alkaline pH of the administered compounds the vehicle control for UTAinh-F11 was 20% dimethylacetamide and 1.2 mg/mL NaHCO3 in saline to give identical pH. […] Urine levels of UTAinh-F11 were >3 μM over 6 h.
Compound toxicity was evaluated by compound incubation for 24 h with MDCK cell cultures followed by Alamar blue assay. […] To assess potential ion channel off-target effects, short-circuit current was measured in MDCK cells in response to cAMP (forskolin) and calcium (ATP) agonists (FIG. 5C, right), which depends on the actions of multiple anion (CFTR, calcium-activated chloride channels) and cation (K^+, Na^+) channels.

Data set [3] addresses T1, rat UT-A1 (Rattus norvegicus, UniProt Q62668).
T1 construct: expressed in transfected cells; host or cells: MDCK cells stably co-expressing rat UT-A1, human AQP1 and YFP-H148Q/V163S
T1 sequence (Q62668 1-929): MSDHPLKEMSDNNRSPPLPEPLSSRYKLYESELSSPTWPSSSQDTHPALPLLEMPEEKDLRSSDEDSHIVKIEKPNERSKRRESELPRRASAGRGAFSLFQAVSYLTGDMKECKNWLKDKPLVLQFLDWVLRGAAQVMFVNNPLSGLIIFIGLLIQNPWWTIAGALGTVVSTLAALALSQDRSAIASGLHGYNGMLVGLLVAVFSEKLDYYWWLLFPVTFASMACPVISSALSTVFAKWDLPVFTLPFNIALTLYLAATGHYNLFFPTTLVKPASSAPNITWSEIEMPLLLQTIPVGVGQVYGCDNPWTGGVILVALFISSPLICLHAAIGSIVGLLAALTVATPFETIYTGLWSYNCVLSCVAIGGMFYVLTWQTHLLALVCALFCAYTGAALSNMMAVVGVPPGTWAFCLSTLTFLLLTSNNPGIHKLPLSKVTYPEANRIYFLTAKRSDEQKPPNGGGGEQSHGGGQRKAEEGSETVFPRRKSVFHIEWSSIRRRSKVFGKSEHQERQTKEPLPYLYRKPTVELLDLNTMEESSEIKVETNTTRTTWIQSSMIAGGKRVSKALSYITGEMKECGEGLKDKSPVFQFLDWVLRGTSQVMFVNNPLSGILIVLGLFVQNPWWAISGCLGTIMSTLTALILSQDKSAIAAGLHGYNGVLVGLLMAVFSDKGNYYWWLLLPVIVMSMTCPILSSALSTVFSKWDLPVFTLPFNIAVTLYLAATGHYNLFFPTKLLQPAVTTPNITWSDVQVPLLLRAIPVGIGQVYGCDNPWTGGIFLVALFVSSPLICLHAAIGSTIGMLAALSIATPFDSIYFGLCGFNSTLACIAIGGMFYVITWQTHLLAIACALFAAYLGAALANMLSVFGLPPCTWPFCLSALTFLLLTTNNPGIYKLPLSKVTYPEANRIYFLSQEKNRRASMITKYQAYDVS
Nature of the data set: UT-A1 inhibition, fluorescence plate reader assay in MDCK cells expressing UT-A1, AQP1 and YFP-H148Q/V163S. In kind it is cell-based. On the procedure:
Primary screening was done using a collection of 50,000 chemically diverse, drug-like compounds from ChemDiv (San Diego, Calif.). For analysis of structure-activity relationships, >300 commercially available analogs (ChemDiv and Asinex, Winston-Salem, N.C.) were tested. Cells were plated on black 96-well Costar microplates with clear plastic bottoms (Corning, Corning, N.Y.) at 15,000 cells/well and cultured for 24 h at 37° C. before assay. Microplates containing cultured cells were washed twice with PBS and 150 μL of test compound (25 μM final) in PBS was added. Eighty wells contained test compounds, and the first and last columns of each plate contained negative (dimethyl sulfoxide, DMSO) and positive (0.35 mM phloretin) controls. The assays were done on a plate reader (Tecan Trading AG, Switzerland) equipped with a custom YFP filter set. Each assay consisted of a continuous 15-s read (5 Hz) in which 50 μL of 3.2 M urea in PBS was injected at 1 s (at 130 μL/s) to give a 800 mM final urea gradient.
MDCK cells stably expressing rat UT-A1 (see, e.g., Frohlich et al. (2006) Am J Physiol Cell Physiol. 291, C600-D606), YFP-H148Q/V163 S (see, e.g., Galietta, et al. (2001) FEBS Lett. 499, 220-224) and human AQP1, as described previously (see, e.g., Esteva-Font et al. (2013) Chem Biol. 20, 1235-1244), were grown in Dulbecco's modified Eagle medium (DMEM) containing 10% fetal bovine serum (FBS), penicillin G (100 U/mL), streptomycin (100 μg/mL), zeocin (500 μg/mL), geneticin (600 μg/mL) and Hygromycin (500 μg/mL) at 37° C., 5% CO2. A Cell Clone with bright YFP fluorescence and relatively low AQP1 expression was used for the screen to maximize dynamic range.
In order to identify UT-A inhibitors suitable for testing in rats, a collection of 50,000 synthetic small molecules was screened. As diagrammed in FIG. 1A (top), the fluorescence cell-based screen utilized MDCK cells stably rat expressing UT-A1, water channel AQP1 and the cytoplasmic chloride-sensing fluorescent protein YFP-H148Q/V163S. As described and validated previously (see, e.g., Esteva-Font et al. (2013) Chem Biol. 20, 1235-1244), extracellular addition of urea results in osmotic water efflux and cell shrinking, which increases intracellular chloride concentration and reduces YFP fluorescence. Urea entry results in increasing YFP fluorescence as cells re-swell. Inhibitors of UT-A1 urea transport produce a lesser reduction in fluorescence and slowed recovery.

≈ marks a conversion by molar mass, not a printed value. Where “and” joins values, the source holds several entries; their conditions need not be identical. Equal entries are not always repeated. Where two headings read alike, the source gives them in different places.

Compound `CC(=O)Nc1ccc(-c2csc(-c3c[nH]c4ccccc34)n2)cc1` [UTA1inh-E02, N-(4-(2-(1H-indol-3-yl)thiazol-4-yl)phenyl)acetamide] had a metabolism in data set [1] of roughly 50%. The solubility entry in data set [2] (in words, vehicle selection) is “limited solubility”; in data set [2] (read-out: solubility limit), roughly 25 µM (≈ 8.34 µg/mL). For the same compound, in data set [3], the IC50 is ~1 µM and 1 µM.
Compound `COc1ccc(C)cc1S(=O)(=O)Nc1ccc(Cl)c(N2CCCS2(=O)=O)c1` [UTA1inh-F11, N-[4-Chloro-3-(1,1-dioxido-1,2-thiazolidin-2-yl)phenyl]-2-methoxy-5-methylbenzene-sulfonamide] had a metabolism in data set [1] of roughly 50%. The solubility result in data set [2] (in words, vehicle selection) is “dissolved well in 20% dimethylacetamide, 0.6 mg/mL NaOH in saline”; in data set [2] (read-out: solubility limit), roughly 25 µM (≈ 10.8 µg/mL). Inhibition in data set [3] was half-maximal at 1 µM (IC50).
